Data: article PMC12300041, “Tricyclic Isatin Derivatives as Anti-Inflammatory Compounds with High Kinase Binding Affinity” (Molecules, 2025)

Legend:
Experiment in all cases: KINOMEscan
Format in all cases: binding
ABL1 (F317L)-P = target: T1, ABL1 (F317L)-P (Homo sapiens, UniProt P00519, F317L)
T1 construct: purchased Eurofins DiscoverX KINOMEscan
Outline: (§1)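 Binding reactions proceed for 1 h at room temperature. Kinase not bound by compound is captured on immobilized affinity ligand and quantified by qPCR; Kd is fitted over 12 half-log concentrations, top 33 μM.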

RET (V804L) = target: T2, RET (V804L) (Homo sapiens, UniProt P07949, V804L)
T2 construct: purchased Eurofins DiscoverX KINOMEscan
Outline: (§2)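 Kd values rest on a 12-point half-log titration, highest concentration 33 μM, with 1 h room-temperature binding and qPCR read-out of affinity-captured free kinase.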

LIMK1 = target: T3, LIMK1 (Homo sapiens, UniProt P53667)
T3 construct: purchased Eurofins DiscoverX KINOMEscan
Outline: as §1

DMPK2 = target: T4, DMPK2 (Homo sapiens, UniProt Q6DT37)
T4 construct: purchased Eurofins DiscoverX KINOMEscan
Outline: as §1

TNK2 = target: T5, TNK2 (Homo sapiens, UniProt Q07912)
T5 construct: purchased Eurofins DiscoverX KINOMEscan
Outline: as §1

[1] = target: T6, RSK3 (Kin. Dom.2-C-term.) (Homo sapiens, UniProt Q15349)
T6 construct: RSK3 (Kin. Dom.2-C-term.); purchased Eurofins DiscoverX KINOMEscan
Outline: as §1

EGFR (L858R) = target: T7, EGFR (L858R) (Homo sapiens, UniProt P00533, L858R)
T7 construct: purchased Eurofins DiscoverX KINOMEscan
Outline: as §2

SRPK1 = target: T8, SRPK1 (Homo sapiens, UniProt Q96SB4)
T8 construct: purchased Eurofins DiscoverX KINOMEscan
Outline: as §2

[2] = target: T9, RPS6KA5 (Kin. Dom.1-N-term.) (Homo sapiens, UniProt O75582)
T9 construct: RPS6KA5 (Kin. Dom.1-N-term.); purchased Eurofins DiscoverX KINOMEscan
Outline: as §1

MEK2 = target: T10, MEK2 (Homo sapiens, UniProt P36507)
T10 construct: purchased Eurofins DiscoverX KINOMEscan
Outline: as §2

FGFR2 = target: T11, FGFR2 (Homo sapiens, UniProt P21802)
T11 construct: purchased Eurofins DiscoverX KINOMEscan
Outline: as §1

ASK1 = target: T12, ASK1 (Homo sapiens, UniProt Q99683)
T12 construct: purchased Eurofins DiscoverX KINOMEscan
Outline: as §2

ARK5 = target: T13, ARK5 (Homo sapiens, UniProt O60285)
T13 construct: purchased Eurofins DiscoverX KINOMEscan
Outline: as §1

PCTK3 = target: T14, PCTK3 (Homo sapiens, UniProt Q07002)
T14 construct: purchased Eurofins DiscoverX KINOMEscan
Outline: as §1

PYK2 = target: T15, PYK2 (Homo sapiens, UniProt Q14289)
T15 construct: purchased Eurofins DiscoverX KINOMEscan
Outline: as §1

ERBB3 = target: T16, ERBB3 (Homo sapiens, UniProt P21860)
T16 construct: purchased Eurofins DiscoverX KINOMEscan
Outline: as §1

MYO3B = target: T17, MYO3B (Homo sapiens, UniProt Q8WXR4)
T17 construct: purchased Eurofins DiscoverX KINOMEscan
Outline: as §2

SNARK = target: T18, SNARK (Homo sapiens, UniProt Q9H093)
T18 construct: purchased Eurofins DiscoverX KINOMEscan
Outline: as §1

CSF1R-autoinhibited = target: T19, CSF1R-autoinhibited (Homo sapiens, UniProt P07333)
T19 construct: purchased Eurofins DiscoverX KINOMEscan
Outline: as §1

ACVR1 = target: T20, ACVR1 (Homo sapiens, UniProt Q04771)
T20 construct: purchased Eurofins DiscoverX KINOMEscan
Outline: as §1

AKT2 = target: T21, AKT2 (Homo sapiens, UniProt P31751)
T21 construct: purchased Eurofins DiscoverX KINOMEscan
Outline: as §1

ABL1 (H396P)-P = target: T22, ABL1 (H396P)-P (Homo sapiens, UniProt P00519, H396P)
T22 construct: purchased Eurofins DiscoverX KINOMEscan
Outline: as §1

KIT (A829P) = target: T23, KIT (A829P) (Homo sapiens, UniProt P10721, A829P)
T23 construct: purchased Eurofins DiscoverX KINOMEscan
Outline: as §1

TEC = target: T24, TEC (Homo sapiens, UniProt P42680)
T24 construct: purchased Eurofins DiscoverX KINOMEscan
Outline: as §1

MAP3K2 = target: T25, MAP3K2 (Homo sapiens, UniProt Q9Y2U5)
T25 construct: purchased Eurofins DiscoverX KINOMEscan
Outline: as §1

EPHB4 = target: T26, EPHB4 (Homo sapiens, UniProt P54760)
T26 construct: purchased Eurofins DiscoverX KINOMEscan
Outline: as §2

VEGFR2 = target: T27, VEGFR2 (Homo sapiens, UniProt P35968)
T27 construct: purchased Eurofins DiscoverX KINOMEscan
Outline: as §2

PIK3CA (E545K) = target: T28, PIK3CA (E545K) (Homo sapiens, UniProt P42336, E545K)
T28 construct: purchased Eurofins DiscoverX KINOMEscan
Outline: as §1

STK16 = target: T29, STK16 (Homo sapiens, UniProt O75716)
T29 construct: purchased Eurofins DiscoverX KINOMEscan
Outline: as §1

FGR = target: T30, FGR (Homo sapiens, UniProt P09769)
T30 construct: purchased Eurofins DiscoverX KINOMEscan
Outline: as §2

ULK2 = target: T31, ULK2 (Homo sapiens, UniProt Q8IYT8)
T31 construct: purchased Eurofins DiscoverX KINOMEscan
Outline: as §1

TSSK1B = target: T32, TSSK1B (Homo sapiens, UniProt Q9BXA7)
T32 construct: purchased Eurofins DiscoverX KINOMEscan
Outline: as §1

CDKL2 = target: T33, CDKL2 (Homo sapiens, UniProt Q92772)
T33 construct: purchased Eurofins DiscoverX KINOMEscan
Outline: as §2

KIT = target: T34, KIT (Homo sapiens, UniProt P10721)
T34 construct: purchased Eurofins DiscoverX KINOMEscan
Outline: as §1

EPHA8 = target: T35, EPHA8 (Homo sapiens, UniProt P29322)
T35 construct: purchased Eurofins DiscoverX KINOMEscan
Outline: as §1

FER = target: T36, FER (Homo sapiens, UniProt P16591)
T36 construct: purchased Eurofins DiscoverX KINOMEscan
Outline: as §1

PIK3CA (Q546K) = target: T37, PIK3CA (Q546K) (Homo sapiens, UniProt P42336, Q546K)
T37 construct: purchased Eurofins DiscoverX KINOMEscan
Outline: as §1

CDKL1 = target: T38, CDKL1 (Homo sapiens, UniProt Q00532)
T38 construct: purchased Eurofins DiscoverX KINOMEscan
Outline: as §1

T24 sequence (P42680 whole entry): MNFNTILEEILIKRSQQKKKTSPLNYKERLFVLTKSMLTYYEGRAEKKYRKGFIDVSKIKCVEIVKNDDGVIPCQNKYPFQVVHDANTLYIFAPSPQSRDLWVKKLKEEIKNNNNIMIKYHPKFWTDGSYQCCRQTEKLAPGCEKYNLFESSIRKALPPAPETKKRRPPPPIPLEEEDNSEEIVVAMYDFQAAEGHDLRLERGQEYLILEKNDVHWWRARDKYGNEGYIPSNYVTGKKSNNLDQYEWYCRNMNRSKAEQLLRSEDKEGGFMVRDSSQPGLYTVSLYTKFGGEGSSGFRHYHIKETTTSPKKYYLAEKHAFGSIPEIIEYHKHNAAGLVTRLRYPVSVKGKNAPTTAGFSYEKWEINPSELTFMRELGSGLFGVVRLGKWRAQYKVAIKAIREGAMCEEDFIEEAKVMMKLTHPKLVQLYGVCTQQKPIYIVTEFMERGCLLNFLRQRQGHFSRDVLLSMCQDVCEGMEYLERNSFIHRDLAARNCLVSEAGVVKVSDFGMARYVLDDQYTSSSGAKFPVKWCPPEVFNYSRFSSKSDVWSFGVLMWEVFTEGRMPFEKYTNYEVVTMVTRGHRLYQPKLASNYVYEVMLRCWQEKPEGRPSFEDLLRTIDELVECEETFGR
T4 sequence (Q6DT37 whole entry): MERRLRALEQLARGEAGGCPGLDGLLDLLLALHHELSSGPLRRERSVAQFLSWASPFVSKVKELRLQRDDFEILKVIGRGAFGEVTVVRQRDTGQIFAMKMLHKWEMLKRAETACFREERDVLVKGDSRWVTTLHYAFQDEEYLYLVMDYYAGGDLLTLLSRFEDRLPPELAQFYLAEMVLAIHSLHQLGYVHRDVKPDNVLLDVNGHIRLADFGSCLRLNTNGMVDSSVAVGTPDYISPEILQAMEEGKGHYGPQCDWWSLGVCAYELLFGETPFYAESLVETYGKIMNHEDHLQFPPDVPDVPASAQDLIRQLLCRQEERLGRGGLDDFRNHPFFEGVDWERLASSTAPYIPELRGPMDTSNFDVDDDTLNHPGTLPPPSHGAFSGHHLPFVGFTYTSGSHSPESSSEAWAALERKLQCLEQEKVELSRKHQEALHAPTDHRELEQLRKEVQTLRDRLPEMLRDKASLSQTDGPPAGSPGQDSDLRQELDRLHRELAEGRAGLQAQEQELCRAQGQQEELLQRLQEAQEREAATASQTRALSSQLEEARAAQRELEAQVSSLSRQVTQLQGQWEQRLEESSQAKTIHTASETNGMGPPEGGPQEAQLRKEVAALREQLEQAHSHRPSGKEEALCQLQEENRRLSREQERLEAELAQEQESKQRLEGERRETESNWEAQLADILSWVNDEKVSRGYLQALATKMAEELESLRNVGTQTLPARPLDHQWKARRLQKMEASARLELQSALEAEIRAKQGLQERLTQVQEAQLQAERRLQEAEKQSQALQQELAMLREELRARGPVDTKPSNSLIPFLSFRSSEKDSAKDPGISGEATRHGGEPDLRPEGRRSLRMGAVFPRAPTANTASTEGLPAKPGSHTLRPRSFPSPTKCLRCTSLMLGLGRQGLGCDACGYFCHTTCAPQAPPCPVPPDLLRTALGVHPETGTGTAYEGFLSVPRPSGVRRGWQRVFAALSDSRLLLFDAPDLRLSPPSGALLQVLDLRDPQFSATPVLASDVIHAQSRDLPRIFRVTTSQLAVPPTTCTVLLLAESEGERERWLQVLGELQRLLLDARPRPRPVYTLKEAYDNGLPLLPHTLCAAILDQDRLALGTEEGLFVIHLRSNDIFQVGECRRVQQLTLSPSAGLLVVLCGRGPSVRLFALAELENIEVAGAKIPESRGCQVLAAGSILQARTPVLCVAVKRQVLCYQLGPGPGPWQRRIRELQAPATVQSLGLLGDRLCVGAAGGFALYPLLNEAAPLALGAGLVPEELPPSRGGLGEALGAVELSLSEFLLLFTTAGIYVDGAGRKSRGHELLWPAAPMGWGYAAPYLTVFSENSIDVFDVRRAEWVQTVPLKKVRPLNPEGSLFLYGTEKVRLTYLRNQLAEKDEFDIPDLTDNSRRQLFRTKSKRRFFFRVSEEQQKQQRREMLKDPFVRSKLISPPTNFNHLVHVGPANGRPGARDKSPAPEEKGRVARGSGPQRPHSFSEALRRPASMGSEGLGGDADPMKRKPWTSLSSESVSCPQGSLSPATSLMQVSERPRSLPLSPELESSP
T37 sequence (P42336 whole entry Q546K): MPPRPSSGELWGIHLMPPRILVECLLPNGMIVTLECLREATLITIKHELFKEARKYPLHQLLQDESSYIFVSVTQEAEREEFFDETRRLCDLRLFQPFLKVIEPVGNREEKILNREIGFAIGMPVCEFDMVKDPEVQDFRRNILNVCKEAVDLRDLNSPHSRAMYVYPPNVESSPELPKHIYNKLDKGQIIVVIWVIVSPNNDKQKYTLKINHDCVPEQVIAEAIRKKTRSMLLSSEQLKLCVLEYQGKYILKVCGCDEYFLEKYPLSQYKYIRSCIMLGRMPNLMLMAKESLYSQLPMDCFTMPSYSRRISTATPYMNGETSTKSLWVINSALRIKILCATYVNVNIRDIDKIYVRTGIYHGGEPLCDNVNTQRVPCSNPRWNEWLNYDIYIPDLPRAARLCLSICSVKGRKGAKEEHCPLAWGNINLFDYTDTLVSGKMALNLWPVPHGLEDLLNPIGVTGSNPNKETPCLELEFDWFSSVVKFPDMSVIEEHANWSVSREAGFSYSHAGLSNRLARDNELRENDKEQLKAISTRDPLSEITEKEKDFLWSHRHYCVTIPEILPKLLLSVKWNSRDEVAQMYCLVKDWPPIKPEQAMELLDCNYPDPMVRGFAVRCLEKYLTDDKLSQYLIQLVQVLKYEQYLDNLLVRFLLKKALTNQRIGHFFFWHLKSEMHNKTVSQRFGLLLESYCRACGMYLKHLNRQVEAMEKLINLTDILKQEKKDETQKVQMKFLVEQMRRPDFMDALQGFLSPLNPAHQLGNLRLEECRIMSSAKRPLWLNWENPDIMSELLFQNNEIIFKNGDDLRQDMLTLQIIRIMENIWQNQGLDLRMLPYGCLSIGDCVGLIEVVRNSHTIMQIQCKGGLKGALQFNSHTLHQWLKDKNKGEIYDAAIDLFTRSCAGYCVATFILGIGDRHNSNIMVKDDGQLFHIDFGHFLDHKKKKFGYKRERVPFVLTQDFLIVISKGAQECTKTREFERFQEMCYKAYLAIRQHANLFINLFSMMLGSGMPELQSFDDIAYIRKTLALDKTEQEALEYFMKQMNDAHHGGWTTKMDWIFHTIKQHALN
T35 sequence (P29322 28-1005): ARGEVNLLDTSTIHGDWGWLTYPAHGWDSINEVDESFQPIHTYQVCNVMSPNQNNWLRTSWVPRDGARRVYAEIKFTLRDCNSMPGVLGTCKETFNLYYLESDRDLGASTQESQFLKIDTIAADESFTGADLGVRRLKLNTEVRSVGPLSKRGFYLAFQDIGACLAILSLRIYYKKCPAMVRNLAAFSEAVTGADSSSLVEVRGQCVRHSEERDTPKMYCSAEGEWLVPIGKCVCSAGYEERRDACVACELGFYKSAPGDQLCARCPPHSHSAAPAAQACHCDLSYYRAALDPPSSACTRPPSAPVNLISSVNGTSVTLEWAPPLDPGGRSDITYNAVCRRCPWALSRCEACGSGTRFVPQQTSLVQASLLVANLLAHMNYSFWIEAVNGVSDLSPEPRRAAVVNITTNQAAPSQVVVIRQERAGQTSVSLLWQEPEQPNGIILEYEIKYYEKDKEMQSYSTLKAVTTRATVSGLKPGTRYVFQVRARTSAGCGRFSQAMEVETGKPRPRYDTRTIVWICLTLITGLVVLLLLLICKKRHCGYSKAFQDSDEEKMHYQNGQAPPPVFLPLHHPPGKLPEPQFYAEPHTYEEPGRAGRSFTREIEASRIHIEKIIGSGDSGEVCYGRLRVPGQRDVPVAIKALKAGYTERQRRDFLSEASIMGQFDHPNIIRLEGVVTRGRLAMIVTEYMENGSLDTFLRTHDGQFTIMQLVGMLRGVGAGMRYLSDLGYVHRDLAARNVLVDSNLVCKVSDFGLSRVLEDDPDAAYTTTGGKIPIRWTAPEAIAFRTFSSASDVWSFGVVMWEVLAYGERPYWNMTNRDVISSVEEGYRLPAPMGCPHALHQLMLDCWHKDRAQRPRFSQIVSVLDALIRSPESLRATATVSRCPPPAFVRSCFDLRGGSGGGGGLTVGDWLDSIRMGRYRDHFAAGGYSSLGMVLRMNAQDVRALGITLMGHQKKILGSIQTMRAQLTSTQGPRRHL
T19 sequence (P07333 539-972 limits assumed): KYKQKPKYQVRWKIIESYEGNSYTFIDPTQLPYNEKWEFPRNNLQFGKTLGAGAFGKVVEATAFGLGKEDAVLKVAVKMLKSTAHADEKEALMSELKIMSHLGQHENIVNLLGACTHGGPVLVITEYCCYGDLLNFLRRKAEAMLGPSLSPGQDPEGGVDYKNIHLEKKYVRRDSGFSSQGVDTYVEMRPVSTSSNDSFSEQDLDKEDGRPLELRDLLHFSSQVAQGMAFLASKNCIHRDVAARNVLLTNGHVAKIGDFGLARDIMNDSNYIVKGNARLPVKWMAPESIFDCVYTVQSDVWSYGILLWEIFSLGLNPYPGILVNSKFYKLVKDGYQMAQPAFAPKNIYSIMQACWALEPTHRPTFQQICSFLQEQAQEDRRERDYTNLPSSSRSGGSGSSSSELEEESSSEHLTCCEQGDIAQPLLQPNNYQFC
T6 sequence (Q15349 389-733 limits assumed): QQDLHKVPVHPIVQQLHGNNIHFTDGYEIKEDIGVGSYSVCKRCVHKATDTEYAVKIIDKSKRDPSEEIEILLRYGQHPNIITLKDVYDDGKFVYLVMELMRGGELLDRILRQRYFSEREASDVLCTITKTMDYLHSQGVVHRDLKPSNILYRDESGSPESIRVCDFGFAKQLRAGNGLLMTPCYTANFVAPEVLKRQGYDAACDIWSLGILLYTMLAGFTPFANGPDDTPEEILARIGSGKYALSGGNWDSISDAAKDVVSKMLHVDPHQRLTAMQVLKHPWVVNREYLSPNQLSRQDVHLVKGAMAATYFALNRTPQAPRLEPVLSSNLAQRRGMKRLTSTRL
T28 sequence (P42336 whole entry E545K): as the sequence (P42336 whole entry Q546K) above, with E545K, K546Q counted along it

O=C1Nc2c(cc([N+](=O)[O-])c3c2CCCC3)C1=NO [Compound 5d, 3-(Hydroxyimino)-5-nitro-1,3,6,7,8,9-hexahydro-2H-benzo[g]indol-2-one]
inhibition at 10 µM (ABL1 (F317L)-P; first of two lines printed ABL1 (F317L)-P): 23%
inhibition at 10 µM (ABL1 (F317L)-P; second of two lines printed ABL1 (F317L)-P): 20%
inhibition at 10 µM (RET (V804L)): 2%
inhibition at 10 µM (LIMK1): 0%
inhibition at 10 µM (DMPK2): 3%
inhibition at 10 µM (TNK2): 2%
inhibition at 10 µM [1]: 74%
inhibition at 10 µM (EGFR (L858R)): 17%
inhibition at 10 µM (SRPK1): 53%
inhibition at 10 µM [2]: 4%
inhibition at 10 µM (MEK2): 87%
inhibition at 10 µM (FGFR2): 19%
inhibition at 10 µM (ASK1): 50%
inhibition at 10 µM (ARK5): 24%
inhibition at 10 µM (PCTK3): 0%
inhibition at 10 µM (PYK2): 0%
inhibition at 10 µM (ERBB3): 0%
inhibition at 10 µM (MYO3B): 30%
inhibition at 10 µM (SNARK): 90%
inhibition at 10 µM (CSF1R-autoinhibited): 37%
inhibition at 10 µM (ACVR1): 2%
inhibition at 10 µM (AKT2): 0%
inhibition at 10 µM (ABL1 (H396P)-P): 41%
inhibition at 10 µM (KIT (A829P)): 0%
inhibition at 10 µM (TEC): 9%
inhibition at 10 µM (MAP3K2): 79%
inhibition at 10 µM (EPHB4): 0%
inhibition at 10 µM (VEGFR2): 39%
inhibition at 10 µM (PIK3CA (E545K)): 0%
inhibition at 10 µM (STK16): 72%
inhibition at 10 µM (FGR): 0%
inhibition at 10 µM (ULK2): 52%
inhibition at 10 µM (TSSK1B): 0%
inhibition at 10 µM (CDKL2): 13%
inhibition at 10 µM (KIT): 0%
inhibition at 10 µM (EPHA8): 0%
inhibition at 10 µM (FER): 39%
inhibition at 10 µM (PIK3CA (Q546K)): 40%
inhibition at 10 µM (CDKL1): 42%
